Values after ≈ are worked out from the molar mass of the structure shown.

The test system of one test is racemase. As to conditions: in words; literature; formed by bacterial peptidase; cited from earlier work.
Another test deals with Streptococcus faecalis. Nature of the test: Antibacterial activity, MIC by Method 1 (method of Atherton et al). Type of test: cell-based. As to conditions: for MIC: Enterococcus faecalis, read-out: Minimum inhibiting concentration (MIC). As for the experimental part:
(§1) Antibacterial activity was tested by two methods.
(§2) Minimum inhibiting concentration (MIC, μg/ml) was determined by the method of Atherton et al (Antimicrobial Agent and Chemotherapy 15, 677, 1979).
(§3) Antibacterial activity: MIC (μ g/ml) [by Method 1]

Another test has as its system Proteus vulgaris. Described as above. The class given is cell-based. As to conditions: for MIC: read-out: Minimum inhibiting concentration (MIC). As for the experimental part: as §1, §2, §3
The next test relates to E. coli. The test is described as above. Type of test: cell-based. As to conditions: for MIC: Escherichia coli, read-out: Minimum inhibiting concentration (MIC). As to the method: as §1, §2, §3
For another test, the system named is Pseudomonas aeruginosa. The description is as above. Type of test: cell-based. As to conditions: for MIC: read-out: Minimum inhibiting concentration (MIC). As for the experimental part:
as §1, §2, §3

The test system of a further test is E. coli DC 2. The description is as above. Type of test: cell-based. As to conditions: for MIC: Escherichia coli, DC2, read-out: Minimum inhibiting concentration (MIC). As for the experimental part: as §1, §2, §3
The subject of another test is Salmonella typhimurium. The test is described as above. The class given is cell-based. As to conditions: for MIC: Salmonella enterica, read-out: Minimum inhibiting concentration (MIC). As for the experimental part: as §1, §2, §3
For the next test, the system named is Serratia marcescens. Described as above. The class given is cell-based. As to conditions: for MIC: read-out: Minimum inhibiting concentration (MIC). As to the method:
as §1, §2, §3

In the next test the test system is Staphylococcus aureus. The description is as above. The class given is cell-based. Particulars: for MIC: read-out: Minimum inhibiting concentration (MIC). As for the experimental part: as §1, §2, §3
A further test has as its system E. coli TEM 2. Described as above. The class given is cell-based. Particulars: for MIC: Escherichia coli, TEM2, read-out: Minimum inhibiting concentration (MIC). As for the experimental part: as §1, §2, §3
Experiment in test [1]: as above
Type of test: cell-based. Particulars: Enterococcus cloacae, read-out: Minimum inhibiting concentration (MIC). As for the experimental part: as §1, §2, §3

Another test relates to Klebsiella pneumoniae. The test is described as above. Type of test: cell-based. As to conditions: for MIC: read-out: Minimum inhibiting concentration (MIC). As for the experimental part: as §1, §2, §3
Test [2] relates to bacterial cell wall synthesis. As to conditions: in words; literature; cited from earlier work.
Another test concerns Enterococcus cloacae. Nature of the test: Antibacterial activity, MIC by Method 1 (method of Atherton et al). The class given is cell-based. As for the experimental part: as §1, §2, §3

`CC(N)P(=O)(O)O` (stereo not drawn) [1-aminoethylphosphonic acid]: the “inhibition of racemase activity” value with racemase is reported as “inhibiting racemase activity”.

As to `CCC[C@H](N)C(=O)NC(CP(=O)(O)C(C)N)C(=O)O` (stereo partly drawn) [Compound No. 6-1, (1-Aminoethyl)(2-L-norvalylamino-2-carboxyethyl)phosphinic acid], the MIC was 16 µg/mL (≈ 54.2 µM) with Streptococcus faecalis; 1 µg/mL (≈ 3.39 µM) with Proteus vulgaris; 16 µg/mL (≈ 54.2 µM) with E. coli; greater than 256 µg/mL in the test with Pseudomonas aeruginosa; 16 µg/mL (≈ 54.2 µM) with E. coli DC 2; 128 µg/mL (≈ 433 µM) with Salmonella typhimurium. Besides, the MIC in the test on Serratia marcescens was greater than 256 µg/mL; with Staphylococcus aureus it was 32 µg/mL (≈ 108 µM); in the test on E. coli TEM 2 it was 256 µg/mL (≈ 867 µM); in test [1] it was 64 µg/mL (≈ 217 µM).

For the compound `CSCC[C@H](N)C(=O)NC(CP(=O)(O)C(C)N)C(=O)O` (stereo partly drawn) [Compound No. 10, (1-Aminoethyl)(2-L-methionylamino-2-carboxyethyl)phosphinic acid], the MIC was greater than 256 µg/mL in the test on Klebsiella pneumoniae; 2 µg/mL (≈ 6.11 µM) in the test on Streptococcus faecalis; 8 µg/mL (≈ 24.4 µM) with Proteus vulgaris; 64 µg/mL (≈ 196 µM) with E. coli; greater than 256 µg/mL in the test with Pseudomonas aeruginosa; 32 µg/mL (≈ 97.8 µM) with E. coli DC 2. For the same compound, the MIC with Salmonella typhimurium was greater than 256 µg/mL; with Serratia marcescens it was greater than 256 µg/mL; with Staphylococcus aureus it was 4 µg/mL (≈ 12.2 µM); in the test on E. coli TEM 2, 256 µg/mL (≈ 782 µM); in [1], 256 µg/mL (≈ 782 µM).

On to `CCC[C@H](NC(=O)[C@H](C)N)C(=O)NC(CP(=O)(O)C(C)N)C(=O)O` (stereo partly drawn) [Compound No. 20, (1-Aminoethyl)(2-L-alanyl-L-norvalylamino-2-carboxyethyl)phosphinic acid], for which the MIC with Klebsiella pneumoniae is no more than 0.25 µg/mL; in the test with Streptococcus faecalis, no more than 0.25 µg/mL; in the test with Proteus vulgaris, 0.5 µg/mL (≈ 1.36 µM); with E. coli it was 0.5 µg/mL (≈ 1.36 µM); in the test with Pseudomonas aeruginosa, 256 µg/mL (≈ 699 µM); in the test on E. coli DC 2, no more than 0.25 µg/mL. The MIC was 0.5 µg/mL (≈ 1.36 µM) in the test on Salmonella typhimurium; 0.5 µg/mL (≈ 1.36 µM) in the test on Serratia marcescens; 256 µg/mL (≈ 699 µM) in the test on Staphylococcus aureus; no more than 0.25 µg/mL with E. coli TEM 2; 0.5 µg/mL (≈ 1.36 µM) in [1].

With `CC(N)C(=O)NC(C)P(=O)(O)O` (stereo not drawn) [alaphosphalin], the “antibacterial action / inhibition of bacterial cell wall synthesis” value in test [2] is listed as “antibacterial action”.

In the case of “(D-1-aminoethyl)(2-L-nor-valylamino -2-L- or -D-carboxyethyl)phosphinic acid [6-2]”, the “Minimum inhibiting concentration (MIC)” value in the test with Klebsiella pneumoniae was 64 µg/mL; in the test on Streptococcus faecalis, 1 µg/mL; in the test with Proteus vulgaris, 1 µg/mL; with E. coli it was 8 µg/mL; with Pseudomonas aeruginosa, greater than 256 µg/mL; with E. coli DC 2 it was 4 µg/mL. Further, the “Minimum inhibiting concentration (MIC)” value came to 32 µg/mL with Salmonella typhimurium; 128 µg/mL with Serratia marcescens; 16 µg/mL in the test on Enterococcus cloacae; 8 µg/mL in the test on Staphylococcus aureus; 64 µg/mL in the test on E. coli TEM 2.

(Values after US5030732A, “Aminoethylphosphinic acid derivatives” (Merck & Co., Inc., priority 1988, dated 1991).)
